Reference: PubChem BioAssay AID230 (DTP/NCI, 2004)
Where “and” joins values, the source holds several entries; their conditions need not be identical. Identical values can stand only once. Toxic doses and inconclusive results are not listed.

Tested on: C3H/He mice, Gardner lymphosarcoma 6C3HED ip, survival T/C
Experiment: NCI In Vivo Anticancer Drug Screen. Data for tumor model Lymphosarcoma Gardner 6C3HED (intraperitoneal) in C3H/He mice
Conditions: endpoint: survival time, mean or median, higher = longer survival
Experimental: The antitumor activity of compounds was measured in mice bearing transplantable tumors. Survival or tumor size were measured and the results are expressed as the measurement made in the treated group (T) divided by the measurement made in the vehicle treated control group (C). The tumor model used in this assay is Lymphosarcoma Gardner 6C3HED (intraperitoneal) in C3H/He mice

[1] = dose: 8.0 mg/kg/injection, schedule: Q01DX010 (ip), vehicle: saline
[2] = dose: 12.5 mg/kg/injection, schedule: Q01DX010 (sc), vehicle: steriod suspending solution
[3] = dose: 25.0 mg/kg/injection, schedule: Q01DX010 (sc), vehicle: steriod suspending solution
[4] = dose: 50.0 mg/kg/injection, schedule: Q01DX010 (sc), vehicle: steriod suspending solution
[5] = dose: 5.0 mg/kg/injection, schedule: Q01DX010 (ip), vehicle: saline
[6] = dose: 20.0 mg/kg/injection, schedule: Q01DX010 (ip), vehicle: saline
[7] = dose: 2.5 mg/kg/injection, schedule: Q01DX010 (ip), vehicle: saline
[8] = dose: 10.0 mg/kg/injection, schedule: Q01DX010 (ip), vehicle: saline
[9] = dose: 40.0 mg/kg/injection, schedule: Q01DX010 (ip), vehicle: saline
[10] = dose: 3.13 mg/kg/injection, schedule: Q01DX010 (ip), vehicle: saline
[11] = dose: 4.0 mg/kg/injection, schedule: Q01DX010 (ip), vehicle: saline
[12] = dose: 0.5 mg/kg/injection, schedule: Q01DX010 (ip), vehicle: saline
[13] = dose: 2.0 mg/kg/injection, schedule: Q01DX010 (ip), vehicle: saline

## O=C(Nc1ccc(C2=NCCN2)cc1)c1cccc(C(=O)Nc2ccc(C3=NCCN3)cc2)c1
[1]
  T/C: 95 % of control
dose: 16.0 mg/kg/injection, schedule: Q01DX010 (ip), vehicle: saline
  T/C: 304 % of control
dose: 32.0 mg/kg/injection, schedule: Q01DX010 (ip), vehicle: saline
  T/C: 304 % of control
dose: 64.0 mg/kg/injection, schedule: Q01DX010 (ip), vehicle: saline
  T/C: 304 % of control

## CC(=O)O[C@]1(C(C)=O)CC[C@H]2[C@@H]3C[C@H](C)C4=CC(=O)C=C[C@]4(C)[C@@]3(F)[C@@H](O)C[C@@]21C
dose: 6.25 mg/kg/injection, schedule: Q01DX010 (sc), vehicle: steriod suspending solution
  T/C: 100 % of control
[2]
  T/C: 96 % of control
[3]
  T/C: 92 % of control
[4]
  T/C: 92 % of control

## OCCOCCN1CCN(CCCN2c3ccccc3Sc3ccc(C(F)(F)F)cc32)CC1
[5]
  T/C: 90 % of control
[6]
  T/C: 90 % of control

## N=C(N)SCc1c2ccccc2c(CSC(=N)N)c2ccccc12
[7]
  T/C: 300 % of control
[5]
  T/C: 300 % of control
[8]
  T/C: 300 % of control
[6]
  T/C: 300 % of control
[9]
  T/C: 192 % of control

## CCN(CC)CCCC(C)Nc1c2ccc(Cl)cc2nc2ccc(OC)cc12 (configuration not stated)
[10]
  T/C: 90 % of control
dose: 6.25 mg/kg/injection, schedule: Q01DX010 (ip), vehicle: saline
  T/C: 90 % of control
dose: 25.0 mg/kg/injection, schedule: Q01DX010 (ip), vehicle: saline
  T/C: 100 % of control
dose: 50.0 mg/kg/injection, schedule: Q01DX010 (ip), vehicle: saline
  T/C: 112 % of control

## CC(CCC(C)OS(C)(=O)=O)OS(C)(=O)=O (configuration not stated)
[11]
  T/C: 86 % of control
[1]
  T/C: 100 % of control

## [I][Hg][CH2]C1COC([CH2][Hg][I])CO1 (configuration not stated)
dose: 1.56 mg/kg/injection, schedule: Q01DX010 (ip), vehicle: saline
  T/C: 93 % of control
[10]
  T/C: 100 % of control

## N#Cc1cn(C2OC(CO)C(O)C2O)c2ncnc(N)c12 (configuration not stated)
dose: 31.0 micrograms/kg/injection, schedule: Q01DX010 (ip), vehicle: saline
  T/C: 96 % of control
dose: 125.0 micrograms/kg/injection, schedule: Q01DX010 (ip), vehicle: saline
  T/C: 96 % of control

## Nc1nc(F)nc2c1ncn2C1OC(CO)C(O)C1O (configuration not stated)
[12]
  T/C: 87 % of control
dose: 1.0 mg/kg/injection, schedule: Q01DX010 (ip), vehicle: saline
  T/C: 87 % of control
dose: 250.0 micrograms/kg/injection, schedule: Q01DX010 (ip), vehicle: saline
  T/C: 86 % of control

## CN(C)CC(=O)c1ccc(O)c(O)c1
dose: 300.0 mg/kg/injection, schedule: Q01DX010 (ip), vehicle: saline
  T/C: 180 % of control
dose: 675.0 mg/kg/injection, schedule: Q01DX010 (ip), vehicle: saline
  T/C: 106 % of control

## C[C@]12C=CC(=O)C=C1CC[C@@H]1[C@@H]2[C@@H](O)C[C@@]2(C)[C@H]1CC[C@]2(O)C(=O)CO
[2]
  T/C: 95 % of control and 100 % of control
[3]
  T/C: 90 % of control and 110 % of control
[4]
  T/C: 95 % of control and 105 % of control
dose: 100.0 mg/kg/injection, schedule: Q01DX010 (sc), vehicle: steriod suspending solution
  T/C: 95 % of control and 110 % of control

## CN(Cc1cnc2nc(N)nc(N)c2n1)c1c(Cl)cc(C(=O)NC(CCC(=O)O)C(=O)O)cc1Cl (configuration not stated)
[8]
  T/C: 300 % of control
[6]
  T/C: 300 % of control
[9]
  T/C: 300 % of control
dose: 80.0 mg/kg/injection, schedule: Q01DX010 (ip), vehicle: saline
  T/C: 300 % of control

## CCOC(=O)NP(=O)(N1CC1)N1CC1
[7]
  T/C: 100 % of control and 107 % of control
[5]
  T/C: 107 % of control and 117 % of control
[8]
  T/C: 157 % of control
[6]
  T/C: 92 % of control and 103 % of control

## N[C@@H](Cc1ccc(N(CCCl)CCCl)cc1)C(=O)O
[12]
  T/C: 106 % of control
[13]
  T/C: 150 % of control
[11]
  T/C: 93 % of control

## C=CC(CN1CC1)OC(C)=O (configuration not stated)
[13]
  T/C: 107 % of control
[11]
  T/C: 123 % of control

## CCN(CCNc1ccc(C)c2sc3cc(Cl)ccc3c(=O)c12)CC(C)O (configuration not stated)
dose: 7.8 mg/kg/injection, schedule: Q01DX010 (ip), vehicle: saline
  T/C: 110 % of control
dose: 15.6 mg/kg/injection, schedule: Q01DX010 (ip), vehicle: saline
  T/C: 100 % of control
dose: 31.3 mg/kg/injection, schedule: Q01DX010 (ip), vehicle: saline
  T/C: 100 % of control
dose: 62.5 mg/kg/injection, schedule: Q01DX010 (ip), vehicle: saline
  T/C: 88 % of control and 96 % of control

## O=[n+]1c2c(n([O-])c3ccccc31)-c1cccc3cccc-2c13
[10]
  T/C: 86 % of control
